What all share (assay): DTP human tumour cell line panel, 48 h
Assay [1] concerns U251 CNS.
Assay [2] has as its system SK-MEL-2 melanoma.
The subject of assay [3] is IGROV1 ovarian.
The test system of assay [4] is SK-MEL-5 melanoma.
In assay [5] the test system is RXF 393 renal.
The subject of assay [6] is SN12C renal.
Assay [7] concerns SNB-19 CNS.
For assay [8], the system named is DU-145 prostate.
For assay [9], the system named is HT29 colon.
Assay [10] concerns A498 renal.

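Following 48 hours of exposure in 96-well plates, responses at five concentrations were used to interpolate endpoints linearly. GI50 = concentration required for 50% inhibition of growth. At the TGI there is no net growth.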

Consider `NCCCC[C@@H]1NC(=O)[C@H]2CCCN2C(=O)[C@H](Cc2ccccc2)NC(=O)[C@H](Cc2ccccc2)CNC1=O`, for which the GI50 in [1], in assay [2], in assay [3], in assay [4], in assay [5] and in assay [6] was over 100 µM in each case. Also, the GI50 in assay [7], in [8], in assay [9] and in assay [10] was over 100 µM in each case. Also, the TGI in assay [1], in [2], in assay [3], in assay [4], in assay [5] and in [6] was over 100 µM throughout. In addition, the total growth inhibition concentration (TGI) in assay [7], in [8], in assay [9] and in assay [10] was over 100 µM throughout.

On to `Clc1nc(Cl)c2ncn(Cc3cccc(COc4cccc(OCc5cccc(Cn6cnc7c(Cl)nc(Cl)nc76)c5)c4)c3)c2n1`, for which the GI50 in assay [1] is 36.9 µM; in [2] it was 17.1 µM; in [3], 60.8 µM; in assay [4], 9.76 µM; in [5], 7.2 µM; in assay [6], over 100 µM. The GI50 was over 100 µM in assay [7], 14.2 µM in assay [8], over 100 µM in assay [9] and over 100 µM in [10]. Further, the total growth inhibition concentration (TGI) is over 100 µM in assay [1]; over 100 µM in assay [2]; over 100 µM in assay [3]; 46.1 µM in assay [4]; over 100 µM in assay [5]; over 100 µM in [6]. In addition, the TGI is over 100 µM in [7], 42.8 µM in assay [8], over 100 µM in assay [9] and over 100 µM in assay [10].

Regarding `Cc1cc(C)c(C(=O)CC(=O)c2cccnc2)c(C)c1`, the GI50 in assay [1] was 3.67 µM; in [2], 17.3 µM; in assay [3], 4.39 µM; in [4] it was 7.56 µM; in [5], 10.7 µM; in assay [6], 9.35 µM. The GI50 is 6.34 µM in [7], 12.2 µM in assay [8], 4.85 µM in [9] and 18.8 µM in assay [10]. Besides, the TGI was over 100 µM in assay [1]; over 100 µM in [2]; over 100 µM in assay [3]; over 100 µM in [4]; 60.2 µM in assay [5]; over 100 µM in assay [6]. Also, the TGI was over 100 µM in [7], over 100 µM in [8], over 100 µM in assay [9] and 94.1 µM in assay [10].

For `Nc1ncc(-c2cnn(CCO)c2)c2scc(-c3ccc(NC(=O)Nc4cccc(F)c4)cc3)c12`, the concentration for 50% growth inhibition (GI50) in [1] is 0.301 µM; in assay [2], 0.364 µM; in assay [3], 0.285 µM; in assay [4], 1.03 µM; in [5] it was 0.241 µM; in [6], 0.186 µM. Also, the GI50 was 1.04 µM in [7], 0.52 µM in [8], 0.283 µM in assay [9] and 0.122 µM in assay [10]. The TGI in [1] was 1.72 µM; in [2], 1.66 µM; in [3], 2.61 µM; in [4] it was 2.35 µM; in assay [5] it was 1.13 µM; in [6], 6.59 µM. For the same molecule, the TGI in assay [7] came to 9.16 µM; in [8] it was 11.6 µM; in assay [9] it was 2.07 µM; in assay [10] it was 0.663 µM.

With `COC(=O)Nc1nc2ccc(Oc3ccc(NC(=O)Nc4ccccc4)cc3)cc2[nH]1`, the concentration for 50% growth inhibition (GI50) was 0.126 µM in assay [1]; 0.109 µM in assay [2]; 0.665 µM in [3]; 0.0702 µM in assay [4]; 0.069 µM in assay [5]; 0.452 µM in [6]. Moreover, the 50% growth inhibitory concentration (GI50) in assay [7] is 0.183 µM; in [8] it was 0.254 µM; in assay [9] it was 0.0937 µM; in [10], 0.141 µM. The TGI in assay [1] is 6.6 µM; in [2] it was 2.19 µM; in [3], over 10.9 µM; in assay [4], 1.18 µM; in assay [5], 0.533 µM; in assay [6], over 10.9 µM. The TGI in assay [7] was over 17 µM; in assay [8] it was 3.1 µM; in [9], 1.01 µM; in assay [10], 4.97 µM.

On to `COc1ccc2c(c1)C=C([N+](=O)[O-])C(C1OC(C)(C)OC1C1COC(C)(C)O1)O2` (stereo not given), for which the TGI amounted to 9.83 µM in [1]; 4.36 µM in [2]; 31.7 µM in assay [3]; 9.17 µM in assay [4]; 8.7 µM in assay [5]; 19.7 µM in assay [6]. For the same molecule, the TGI in assay [7] amounted to 25.7 µM; in assay [8], 29.5 µM; in [9], 4.34 µM; in [10], 33.3 µM.

Consider `CCc1[nH]c(=O)nc(N)c1-c1ccc(N2CCCCC2)c([N+](=O)[O-])c1`, for which the concentration for total growth inhibition (TGI) in assay [1], in [2], in assay [3], in [4], in [5] and in assay [6] was over 100 µM in each case. In addition, the TGI in [7], in assay [8], in assay [9] and in assay [10] was over 100 µM each time.

On to `CCN1C(=O)CNc2ncc(-c3ccc(-c4ncn[nH]4)nc3C)nc21`, for which the GI50 in [1] was 0.289 µM; in assay [2], 0.162 µM; in [3], 0.045 µM; in assay [4], 0.0864 µM; in assay [5], 0.0476 µM; in assay [6], 0.168 µM. The GI50 in assay [7] is 0.337 µM; in assay [8] it was 0.253 µM; in assay [9], 0.317 µM; in assay [10] it was 0.013 µM. In addition, the concentration for total growth inhibition (TGI) in [1] is 9.64 µM; in [2] it was 0.711 µM; in assay [3], 0.606 µM; in assay [4], 0.792 µM; in assay [5] it was 0.371 µM; in assay [6], 14.9 µM. Also, the TGI turned out to be 6.9 µM in [7], 12.7 µM in assay [8], 11.6 µM in [9] and 0.0613 µM in [10].

For `CC/C=C\C[C@@H]1C/C=C2/C(=O)C=C[C@H]2C/C=C\CCCC(=O)O1`, the 50% growth inhibitory concentration (GI50) in assay [1] is 0.365 µM; in assay [2], 1.8 µM; in assay [3] it was 0.91 µM; in assay [4], 0.348 µM; in assay [5] it was 0.492 µM; in [6], 0.545 µM. For the same molecule, the GI50 in [7] was 1.25 µM; in assay [8], 0.362 µM; in assay [9], 0.267 µM; in assay [10], 1.81 µM. The concentration for total growth inhibition (TGI) in assay [1] came to 1.51 µM; in assay [2] it was 4.23 µM; in assay [3] it was 3.93 µM; in assay [4], 1.43 µM; in assay [5], 1.73 µM; in assay [6] it was 4.01 µM. The TGI is 3.36 µM in [7], 1.28 µM in assay [8], 0.677 µM in [9] and 3.3 µM in [10].

Take `CCOC(=O)Sc1ncnc2nc[nH]c12`: the GI50 was 12.9 µM in assay [1]; 6.15 µM in assay [2]; 6.69 µM in assay [3]; 5.96 µM in [4]; 15.1 µM in [5]; 7.94 µM in [6]. Further, the GI50 in assay [7] was 85 µM; in assay [8], 0.586 µM; in assay [9], 3.07 µM; in assay [10] it was 14.4 µM. Moreover, the TGI in assay [1], in assay [2], in assay [3], in assay [4], in assay [5] and in assay [6] was over 100 µM in each case. Further, the concentration for total growth inhibition (TGI) in [7], in assay [8], in assay [9] and in assay [10] was over 100 µM each time.

Turning to `O=C(N/N=C/c1cccc(O)c1O)c1ccccc1`, the GI50 in assay [1] is 0.569 µM; in assay [2] it was 11.7 µM; in assay [3] it was 3.49 µM; in assay [4], 0.626 µM; in [5], 1.98 µM; in assay [6], 0.73 µM. Further, the GI50 in [7] is 1.46 µM; in assay [8], 1.15 µM; in [9], 4.9 µM; in [10], 6.28 µM. Moreover, the TGI in assay [1] is over 100 µM; in assay [2], over 100 µM; in [3], over 100 µM; in [4] it was over 22.7 µM; in assay [5], over 100 µM; in assay [6], over 100 µM. The concentration for total growth inhibition (TGI) in [7] was over 100 µM; in assay [8], over 100 µM; in assay [9] it was over 100 µM; in assay [10], 65.4 µM.

For the molecule `CCN(CC)c1ccc(C(=N)c2ccc(N(CC)CC)cc2)cc1`, the GI50 in assay [1] was 0.542 µM; in assay [2], 0.423 µM; in assay [3], 0.565 µM; in [4] it was 0.342 µM; in assay [5], 0.731 µM; in assay [6], 1.34 µM. Also, the GI50 in [7] is 0.917 µM; in assay [8], 0.467 µM; in assay [9], 0.319 µM; in assay [10] it was 0.575 µM. The concentration for total growth inhibition (TGI) came out at 2.16 µM in assay [1]; 1.52 µM in [2]; 4.43 µM in [3]; 1.24 µM in assay [4]; 2.45 µM in [5]; 5.82 µM in assay [6]. Also, the total growth inhibition concentration (TGI) in assay [7] was 8.09 µM; in assay [8] it was 2.65 µM; in assay [9], 2.83 µM; in assay [10] it was 2.38 µM.

Values taken from PubChem BioAssay (NCI).
